According to patent EP4722207A1, “OXOISOINDOLINYL-SUBSTITUTED TETRAHYDROPYRIMIDINEDIONE DERIVATIVE AND USE THEREOF” (Gluetacs Therapeutics (Shanghai) Co., Ltd., priority 2023, dated 2024):

Legend:
IKZF3 = target: T1, IKZF3 (Homo sapiens, UniProt Q96SW2+Q9UKT9); assay: Western-blot assay, substrate protein degradation in hPBMCs: IKZF3; assay type: cell-based; settings: for substrate protein remaining % IKZF3: 24 hours of compound treatment, 50 nM and 500 nM; for IKZF3 substrate protein remaining %: compounds at 50 nM and 500 nM, 24 hours
T1 construct: effects of the compounds of the present disclosure on the expression of target proteins in cells; endogenous in cells; host or cells: human PBMCs (hPBMCs)
T1 sequence (Q9UKT9 whole entry): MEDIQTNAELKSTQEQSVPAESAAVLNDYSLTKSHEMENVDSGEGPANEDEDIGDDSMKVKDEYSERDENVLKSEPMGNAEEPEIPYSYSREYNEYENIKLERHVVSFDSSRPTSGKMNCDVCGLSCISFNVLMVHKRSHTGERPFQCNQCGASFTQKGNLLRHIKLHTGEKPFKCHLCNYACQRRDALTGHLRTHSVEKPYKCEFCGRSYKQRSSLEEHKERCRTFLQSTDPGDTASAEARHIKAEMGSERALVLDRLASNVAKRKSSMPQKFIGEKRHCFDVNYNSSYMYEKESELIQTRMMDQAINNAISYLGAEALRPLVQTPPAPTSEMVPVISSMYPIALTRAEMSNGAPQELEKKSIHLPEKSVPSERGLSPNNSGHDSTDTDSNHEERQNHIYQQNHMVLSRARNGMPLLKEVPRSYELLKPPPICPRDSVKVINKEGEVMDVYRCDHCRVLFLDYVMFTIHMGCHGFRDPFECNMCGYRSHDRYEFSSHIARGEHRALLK
T1 sequence (Q96SW2 whole entry): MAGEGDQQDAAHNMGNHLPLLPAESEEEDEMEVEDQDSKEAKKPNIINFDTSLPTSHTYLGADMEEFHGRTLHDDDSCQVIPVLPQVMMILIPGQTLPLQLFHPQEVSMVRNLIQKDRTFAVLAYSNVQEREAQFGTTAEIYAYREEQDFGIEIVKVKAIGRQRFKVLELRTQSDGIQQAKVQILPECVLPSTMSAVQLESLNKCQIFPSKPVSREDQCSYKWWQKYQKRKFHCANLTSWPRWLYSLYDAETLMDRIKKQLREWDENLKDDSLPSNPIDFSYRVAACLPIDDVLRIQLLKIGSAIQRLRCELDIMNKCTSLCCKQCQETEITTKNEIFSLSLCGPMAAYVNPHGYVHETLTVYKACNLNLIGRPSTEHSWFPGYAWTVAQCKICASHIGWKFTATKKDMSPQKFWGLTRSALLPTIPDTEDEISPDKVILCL
T1 sequence (Q16531 whole entry partner): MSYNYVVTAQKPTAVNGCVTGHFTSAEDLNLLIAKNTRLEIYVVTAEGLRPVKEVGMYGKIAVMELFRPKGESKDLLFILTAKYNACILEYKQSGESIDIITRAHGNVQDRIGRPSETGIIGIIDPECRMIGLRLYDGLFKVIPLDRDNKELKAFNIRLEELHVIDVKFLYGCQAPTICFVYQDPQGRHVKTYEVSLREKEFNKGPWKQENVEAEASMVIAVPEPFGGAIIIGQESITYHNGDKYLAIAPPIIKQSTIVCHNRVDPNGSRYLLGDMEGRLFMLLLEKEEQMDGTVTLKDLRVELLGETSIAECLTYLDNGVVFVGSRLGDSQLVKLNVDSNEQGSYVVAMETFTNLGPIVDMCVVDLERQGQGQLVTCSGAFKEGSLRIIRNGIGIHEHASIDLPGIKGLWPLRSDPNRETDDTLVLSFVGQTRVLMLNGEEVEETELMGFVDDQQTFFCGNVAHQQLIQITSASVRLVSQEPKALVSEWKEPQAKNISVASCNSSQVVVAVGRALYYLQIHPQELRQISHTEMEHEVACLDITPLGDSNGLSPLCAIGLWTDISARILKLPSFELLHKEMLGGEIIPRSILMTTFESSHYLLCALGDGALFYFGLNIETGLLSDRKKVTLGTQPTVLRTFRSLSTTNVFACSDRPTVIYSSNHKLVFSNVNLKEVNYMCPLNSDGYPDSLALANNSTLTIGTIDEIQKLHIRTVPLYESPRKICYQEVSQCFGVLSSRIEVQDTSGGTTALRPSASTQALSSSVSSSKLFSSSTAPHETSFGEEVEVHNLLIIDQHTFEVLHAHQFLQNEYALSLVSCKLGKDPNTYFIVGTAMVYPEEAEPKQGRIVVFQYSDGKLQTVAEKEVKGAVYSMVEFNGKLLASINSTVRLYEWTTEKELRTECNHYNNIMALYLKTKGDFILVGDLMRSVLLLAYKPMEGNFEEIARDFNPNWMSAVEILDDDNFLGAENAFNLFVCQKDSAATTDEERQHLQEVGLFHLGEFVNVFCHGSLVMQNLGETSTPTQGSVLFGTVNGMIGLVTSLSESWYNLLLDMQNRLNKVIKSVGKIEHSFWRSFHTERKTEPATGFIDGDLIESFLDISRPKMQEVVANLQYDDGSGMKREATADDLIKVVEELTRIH

IKZF2 = target: T2, IKZF2 (Homo sapiens, UniProt Q96SW2+Q9UKS7); assay: Western-blot assay, substrate protein degradation in hPBMCs: IKZF2; assay type: cell-based; settings: for substrate protein remaining % IKZF2: 24 hours of compound treatment, 50 nM and 500 nM; for IKZF2 substrate protein remaining %: compounds at 50 nM and 500 nM, 24 hours
T2 construct: effects of the compounds of the present disclosure on the expression of target proteins in cells; endogenous in cells; host or cells: human PBMCs (hPBMCs)

IKZF1 = target: T3, IKZF1 (Homo sapiens, UniProt Q13422+Q96SW2); assay: Western-blot assay, substrate protein degradation in hPBMCs: IKZF1; assay type: cell-based; settings: for substrate protein remaining % IKZF1: 24 hours of compound treatment, 50 nM and 500 nM; for IKZF1 substrate protein remaining %: compounds at 50 nM and 500 nM, 24 hours
T3 construct: effects of the compounds of the present disclosure on the expression of target proteins in cells; endogenous in cells; host or cells: human PBMCs (hPBMCs)
T3 sequence (Q13422 whole entry): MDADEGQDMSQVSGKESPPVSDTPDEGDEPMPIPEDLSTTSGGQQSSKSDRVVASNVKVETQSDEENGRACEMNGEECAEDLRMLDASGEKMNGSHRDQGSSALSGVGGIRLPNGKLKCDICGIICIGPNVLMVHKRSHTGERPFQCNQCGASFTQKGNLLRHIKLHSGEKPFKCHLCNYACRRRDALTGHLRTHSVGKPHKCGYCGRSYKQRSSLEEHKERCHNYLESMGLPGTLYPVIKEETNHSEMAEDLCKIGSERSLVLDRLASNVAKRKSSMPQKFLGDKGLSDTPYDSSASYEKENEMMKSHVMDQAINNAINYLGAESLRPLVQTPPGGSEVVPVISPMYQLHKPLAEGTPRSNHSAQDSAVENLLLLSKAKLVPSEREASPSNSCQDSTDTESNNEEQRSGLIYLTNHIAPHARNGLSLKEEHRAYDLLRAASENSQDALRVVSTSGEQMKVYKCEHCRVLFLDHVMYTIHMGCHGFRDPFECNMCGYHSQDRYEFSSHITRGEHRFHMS
T3 sequence (Q96SW2 whole entry): as the sequence (Q96SW2 whole entry) above
T3 sequence (Q16531 whole entry partner): as the sequence (Q16531 whole entry partner) above

Jurkat = assay: Cell viability assay (CellTiter-Meiluncell Luminescent), tumor cell proliferation, Jurkat; settings: Homo sapiens, 96 h, read-out: inhibitory activity (IC50, nM) against tumor cells proliferation, Jurkat
Protocol: On the following day, the test compounds of the present disclosure were subjected to serial dilution. […] Subsequently, 0.5 µL of the test compound dilution was transferred into the 96-well plate containing the cells, with each well containing 100 µL of cell culture medium. […] Into the 96-well plate, the diluted test compounds and corresponding detection reagents were added, resulting in final test compound concentrations of 500 nM and 10 nM, respectively.
(§1) After the cells were treated with the compounds of the present disclosure for a specified period, the cell viability assay reagent was added to the culture medium according to the kit's instructions to determine cell viability. […] All controls were treated using the same procedure as the compounds of the present disclosure. The growth inhibition curves for the compounds of the present disclosure were plotted using Prism GraphPad software, and the IC50 values were calculated therefrom.

WEE1 = target: T4, WEE1 (Homo sapiens, UniProt P30291+Q96SW2); assay: Western-blot assay, substrate protein degradation in hPBMCs: WEE1; assay type: cell-based; settings: for substrate protein remaining % WEE1: 24 hours of compound treatment, 50 nM and 500 nM; for WEE1 substrate protein remaining %: compounds at 50 nM and 500 nM, 24 hours
T4 construct: effects of the compounds of the present disclosure on the expression of target proteins in cells; endogenous in cells; host or cells: human PBMCs (hPBMCs)
T4 sequence (P30291 whole entry): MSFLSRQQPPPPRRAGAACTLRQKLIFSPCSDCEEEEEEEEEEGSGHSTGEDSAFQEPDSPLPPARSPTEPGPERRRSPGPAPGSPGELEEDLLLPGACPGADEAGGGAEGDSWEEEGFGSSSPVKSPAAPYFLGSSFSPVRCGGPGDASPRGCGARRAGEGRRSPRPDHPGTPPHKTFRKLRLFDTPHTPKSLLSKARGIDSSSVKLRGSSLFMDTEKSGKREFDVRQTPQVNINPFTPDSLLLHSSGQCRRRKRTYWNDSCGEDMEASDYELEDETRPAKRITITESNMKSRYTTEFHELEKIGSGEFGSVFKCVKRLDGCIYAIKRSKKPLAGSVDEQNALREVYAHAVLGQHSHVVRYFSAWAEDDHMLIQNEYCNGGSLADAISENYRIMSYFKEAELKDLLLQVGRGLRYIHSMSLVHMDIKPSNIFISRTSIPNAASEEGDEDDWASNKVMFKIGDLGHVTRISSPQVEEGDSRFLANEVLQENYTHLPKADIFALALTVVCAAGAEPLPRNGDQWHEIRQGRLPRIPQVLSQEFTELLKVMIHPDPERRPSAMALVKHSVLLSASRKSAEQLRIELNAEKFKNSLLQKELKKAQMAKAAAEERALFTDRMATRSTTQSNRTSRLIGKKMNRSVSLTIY
T4 sequence (Q96SW2 whole entry): as the sequence (Q96SW2 whole entry) above
T4 sequence (Q16531 whole entry partner): as the sequence (Q16531 whole entry partner) above

GSPT1 = target: T5, GSPT1 (Homo sapiens, UniProt P15170+Q96SW2); assay: Western-blot assay, substrate protein degradation in hPBMCs: GSPT1; assay type: cell-based; settings: for substrate protein remaining % GSPT1: 24 hours of compound treatment, 50 nM and 500 nM; for GSPT1 substrate protein remaining %: compounds at 50 nM and 500 nM, 24 hours
T5 construct: effects of the compounds of the present disclosure on the expression of target proteins in cells; endogenous in cells; host or cells: human PBMCs (hPBMCs)
T5 sequence (P15170 whole entry): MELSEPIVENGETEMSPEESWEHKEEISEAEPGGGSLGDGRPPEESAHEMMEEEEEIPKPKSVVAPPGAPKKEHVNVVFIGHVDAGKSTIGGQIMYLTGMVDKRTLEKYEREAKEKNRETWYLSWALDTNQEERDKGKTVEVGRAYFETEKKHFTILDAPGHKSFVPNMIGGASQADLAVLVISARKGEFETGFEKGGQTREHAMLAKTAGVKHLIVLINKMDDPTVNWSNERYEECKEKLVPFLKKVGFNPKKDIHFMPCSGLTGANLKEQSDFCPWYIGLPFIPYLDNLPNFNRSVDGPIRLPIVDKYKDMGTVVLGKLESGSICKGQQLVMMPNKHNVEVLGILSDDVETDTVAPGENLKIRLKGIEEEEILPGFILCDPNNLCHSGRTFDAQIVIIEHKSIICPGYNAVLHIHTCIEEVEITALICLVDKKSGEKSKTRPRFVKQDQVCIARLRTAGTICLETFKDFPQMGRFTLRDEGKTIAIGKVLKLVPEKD
T5 sequence (Q96SW2 whole entry): as the sequence (Q96SW2 whole entry) above
T5 sequence (Q16531 whole entry partner): as the sequence (Q16531 whole entry partner) above

CK1α = target: T6, CK1α (Homo sapiens, UniProt P48729+Q96SW2); assay: Western-blot assay, substrate protein degradation in hPBMCs: CK1α; assay type: cell-based; settings: for substrate protein remaining % CK1α: 24 hours of compound treatment, 50 nM and 500 nM; for CK1α substrate protein remaining %: compounds at 50 nM and 500 nM, 24 hours
T6 construct: effects of the compounds of the present disclosure on the expression of target proteins in cells; endogenous in cells; host or cells: human PBMCs (hPBMCs)
T6 sequence (P48729 whole entry): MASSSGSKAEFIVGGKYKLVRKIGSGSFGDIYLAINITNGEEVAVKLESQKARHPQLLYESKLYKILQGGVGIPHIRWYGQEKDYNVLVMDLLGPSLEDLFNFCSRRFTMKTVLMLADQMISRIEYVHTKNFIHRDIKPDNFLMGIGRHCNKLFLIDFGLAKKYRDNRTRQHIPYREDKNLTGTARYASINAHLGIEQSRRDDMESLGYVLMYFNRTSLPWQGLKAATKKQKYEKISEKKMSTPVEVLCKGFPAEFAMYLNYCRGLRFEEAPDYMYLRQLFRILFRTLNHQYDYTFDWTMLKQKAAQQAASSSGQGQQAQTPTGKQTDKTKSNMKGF
T6 sequence (Q96SW2 whole entry): as the sequence (Q96SW2 whole entry) above
T6 sequence (Q16531 whole entry partner): as the sequence (Q16531 whole entry partner) above

MM.1S = assay: Cell viability assay (CellTiter-Meiluncell Luminescent), tumor cell proliferation, MM.1S; settings: Homo sapiens, MM1.S, 96 h; for IC50: read-out: inhibitory activity (IC50, nM) against tumor cells proliferation, MM.1S; for inhibition at 0.01 µM: read-out: Inhibition Rate at 10 nM (%); for inhibition at 0.5 µM: read-out: Inhibition Rate at 500 nM (%)
MV-4-11 = assay: Cell viability assay (CellTiter-Meiluncell Luminescent), tumor cell proliferation, MV-4-11; settings: Homo sapiens, MV4-11, 96 h; for IC50: read-out: inhibitory activity (IC50, nM) against tumor cells proliferation, MV-4-11; for inhibition at 0.01 µM: read-out: Inhibition Rate at 10 nM (%); for inhibition at 0.5 µM: read-out: Inhibition Rate at 500 nM (%)
H2228 = assay: Cell viability assay (CellTiter-Meiluncell Luminescent), tumor cell proliferation, H2228; settings: Homo sapiens, NCI-H2228, 96 h; for inhibition at 0.01 µM: read-out: Inhibition Rate at 10 nM (%); for inhibition at 0.5 µM: read-out: Inhibition Rate at 500 nM (%)
Protocol: (§2) The tumor cells used herein were cultured in a cell culture medium listed in table 2 at 37°C in an incubator with 5% CO2. Prior to experimentation, all cell lines used were correctly identified by STR profiling, and tested negative for mycoplasma contamination using a mycoplasma detection kit through routine screenings.
(§3) On the following day, the test compounds of the present disclosure were subjected to serial dilution. […] Subsequently, 0.5 µL of the test compound dilution was transferred into the 96-well plate containing the cells, with each well containing 100 µL of cell culture medium. […] Into the 96-well plate, the diluted test compounds and corresponding detection reagents were added, resulting in final test compound concentrations of 500 nM and 10 nM, respectively. The experimental procedure is described below using the diluted 2 µM test compound as an example.
as §1

MDA-MB-231 = assay: Cell viability assay (CellTiter-Meiluncell Luminescent), tumor cell proliferation, MDA-MB-231; settings: Homo sapiens, MDA-MB-231, 96 h; for inhibition at 0.01 µM: read-out: Inhibition Rate at 10 nM (%); for inhibition at 0.5 µM: read-out: Inhibition Rate at 500 nM (%)
Protocol: as §2, §3, §1

H292 = assay: Cell viability assay (CellTiter-Meiluncell Luminescent), tumor cell proliferation, H292; settings: Homo sapiens, NCI-H292, 96 h; for inhibition at 0.01 µM: read-out: Inhibition Rate at 10 nM (%); for inhibition at 0.5 µM: read-out: Inhibition Rate at 500 nM (%)

Structure (SMILES)	IC50 (Jurkat)	IC50 (MV-4-11)	substrate protein remaining % IKZF3 (IKZF3)	substrate protein remaining % IKZF2 (IKZF2)	substrate protein remaining % IKZF1 (IKZF1)	substrate protein remaining % WEE1 (WEE1)	substrate protein remaining % GSPT1 (GSPT1)	substrate protein remaining % CK1α (CK1α)	IKZF3 substrate protein remaining % (IKZF3)	IKZF2 substrate protein remaining % (IKZF2)	IKZF1 substrate protein remaining % (IKZF1)	WEE1 substrate protein remaining % (WEE1)	GSPT1 substrate protein remaining % (GSPT1)	CK1α substrate protein remaining % (CK1α)	also measured
O=C1CCN(N2Cc3cc(CN4CCC(c5cccc(F)c5Cl)CC4)ccc3C2=O)C(=O)N1 [GT-06894, 1-(5-((4-(2-chloro-3-fluorophenyl)piperidin-1-yl)methyl)-1-oxoisoindolin-2-yl)dihydropyrimidine-2,4(1H,3H)-dione]	500 to 1000 nM	300 to 500 nM	–	–	–	–	–	–	B ("B" is defined as 80%< substrate protein remaining %≤ 100%)	B ("B" is defined as 80%< substrate protein remaining %≤ 100%)	A ("A" is defined as 0% ≤ substrate protein remaining % ≤ 80%)	B ("B" is defined as 80%< substrate protein remaining %≤ 100%)	A ("A" is defined as 0% ≤ substrate protein remaining % ≤ 80%)	B ("B" is defined as 80%< substrate protein remaining %≤ 100%)	–
O=C1CCN(N2Cc3cc(CN4CC=C(c5ccnc(Cl)c5Cl)CC4)ccc3C2=O)C(=O)N1 [GT-07432, 1-(5-((2',3'-dichloro-3,6-dihydro-[4,4'-bipyridin]-1(2H)-yl)methyl)-1-oxoisoindolin-2-yl)dihydropyrimidine-2,4(1H,3H)-dione]	500 to 1000 nM	–	A (0% ≤ substrate protein remaining % ≤ 80%)	A (0% ≤ substrate protein remaining % ≤ 80%)	A (0% ≤ substrate protein remaining % ≤ 80%)	A (0% ≤ substrate protein remaining % ≤ 80%)	A (0% ≤ substrate protein remaining % ≤ 80%)	A (0% ≤ substrate protein remaining % ≤ 80%)	–	–	–	–	–	–	IC50 (MM.1S): 300 to 500 nM
Cc1nc(C2CCN(Cc3ccc4c(c3)CN(N3CCC(=O)NC3=O)C4=O)CC2)c2ccsc2n1 [GT-08088, 1-(5-((4-(2-methylthieno[2,3-d]pyrimidin-4-yl)piperidin-1-yl)methyl)-1-oxoisoindolin-2-yl)dihydropyrimidine-2,4(1H,3H)-dione]	–	–	B (80%< substrate protein remaining %≤ 100%)	B (80%< substrate protein remaining %≤ 100%)	B (80%< substrate protein remaining %≤ 100%)	A (0% ≤ substrate protein remaining % ≤ 80%)	A (0% ≤ substrate protein remaining % ≤ 80%)	A (0% ≤ substrate protein remaining % ≤ 80%)	–	–	–	–	–	–	inhibition at 0.01 µM (H2228): 25 to 30%; inhibition at 0.5 µM (H2228): 25 to 30%; inhibition at 0.01 µM (MV-4-11): 40 to 60%; inhibition at 0.5 µM (MV-4-11): 30 to 40%; inhibition at 0.01 µM (MDA-MB-231): 18 to 25%; inhibition at 0.5 µM (MDA-MB-231): 25 to 40%; inhibition at 0.01 µM (H292): 20 to 40%; inhibition at 0.5 µM (H292): 20 to 40%; inhibition at 0.01 µM (MM.1S): 42 to 60%; inhibition at 0.5 µM (MM.1S): 42 to 60%
Cc1cccc(N2CCN(Cc3ccc4c(c3)CN(N3CCC(=O)NC3=O)C4=O)CC2)c1 [GT-06770, 1-(1-oxo-5-((4-(m-tolyl)piperazin-1-yl)methyl)isoindolin-2-yl)dihydropyrimidine-2,4(1H,3H)-dione]	500 to 1000 nM	500 to 1000 nM	–	–	–	–	–	–	A ("A" is defined as 0% ≤ substrate protein remaining % ≤ 80%)	A ("A" is defined as 0% ≤ substrate protein remaining % ≤ 80%)	A ("A" is defined as 0% ≤ substrate protein remaining % ≤ 80%)	A ("A" is defined as 0% ≤ substrate protein remaining % ≤ 80%)	A ("A" is defined as 0% ≤ substrate protein remaining % ≤ 80%)	A ("A" is defined as 0% ≤ substrate protein remaining % ≤ 80%)	–
O=C1CCN(N2C(=O)c3ccc(CN4CCN(c5ncnc6sccc56)CC4)cc3C2=O)C(=O)N1 [GT-08090, 2-(2,4-dioxotetrahydropyrimidin-1(2H)-yl)-5-((4-(thieno[2,3-d]pyrimidin-4-yl)piperazin-1-yl)methyl)isoindoline-1,3-dione]	–	–	B (80%< substrate protein remaining %≤ 100%)	B (80%< substrate protein remaining %≤ 100%)	B (80%< substrate protein remaining %≤ 100%)	A (0% ≤ substrate protein remaining % ≤ 80%)	A (0% ≤ substrate protein remaining % ≤ 80%)	A (0% ≤ substrate protein remaining % ≤ 80%)	–	–	–	–	–	–	inhibition at 0.01 µM (H2228): 20 to 25%; inhibition at 0.5 µM (H2228): 20 to 25%; inhibition at 0.01 µM (MV-4-11): 60 to 80%; inhibition at 0.5 µM (MV-4-11): 60 to 80%; inhibition at 0.01 µM (MDA-MB-231): 15 to 18%; inhibition at 0.5 µM (MDA-MB-231): 18 to 25%; inhibition at 0.01 µM (H292): 15 to 20%; inhibition at 0.5 µM (H292): 15 to 20%; inhibition at 0.01 µM (MM.1S): 30 to 42%; inhibition at 0.5 µM (MM.1S): 42 to 60%

Further lines, with some results ahead:

IC50 (Jurkat)	IC50 (MV-4-11)	Structure (SMILES)	substrate protein remaining % IKZF3 (IKZF3)	substrate protein remaining % IKZF2 (IKZF2)	substrate protein remaining % IKZF1 (IKZF1)	substrate protein remaining % WEE1 (WEE1)	substrate protein remaining % GSPT1 (GSPT1)	substrate protein remaining % CK1α (CK1α)	IKZF3 substrate protein remaining % (IKZF3)	IKZF2 substrate protein remaining % (IKZF2)	IKZF1 substrate protein remaining % (IKZF1)	WEE1 substrate protein remaining % (WEE1)	GSPT1 substrate protein remaining % (GSPT1)	CK1α substrate protein remaining % (CK1α)	also measured
50 to 100 nM	–	O=C1CCN(N2Cc3cc(CN4CC=C(c5cccc6c(F)cccc56)CC4)ccc3C2=O)C(=O)N1 [GT-07590, 1-(5-((4-(5-fluoronaphthalen-1-yl)-3,6-dihydropyridin-1(2H)-yl)methyl)-1-oxoisoindolin-2-yl)dihydropyrimidine-2,4(1H,3H)-dione]	A (0% ≤ substrate protein remaining % ≤ 80%)	A (0% ≤ substrate protein remaining % ≤ 80%)	A (0% ≤ substrate protein remaining % ≤ 80%)	A (0% ≤ substrate protein remaining % ≤ 80%)	A (0% ≤ substrate protein remaining % ≤ 80%)	B (80%< substrate protein remaining %≤ 100%)	–	–	–	–	–	–	IC50 (MM.1S): 10 to 50 nM
500 to 1000 nM	100 to 300 nM	O=C1CCN(N2Cc3cc(CN4CCN(c5cc(Cl)cc(Cl)c5)CC4)ccc3C2=O)C(=O)N1 [GT-06776, 1-(5-((4-(3,5-dichlorophenyl)piperazin-1-yl)methyl)-1-oxoisoindolin-2-yl)dihydropyrimidine-2,4(1H,3H)-dione]	–	–	–	–	–	–	B ("B" is defined as 80%< substrate protein remaining %≤ 100%)	A ("A" is defined as 0% ≤ substrate protein remaining % ≤ 80%)	B ("B" is defined as 80%< substrate protein remaining %≤ 100%)	A ("A" is defined as 0% ≤ substrate protein remaining % ≤ 80%)	A ("A" is defined as 0% ≤ substrate protein remaining % ≤ 80%)	A ("A" is defined as 0% ≤ substrate protein remaining % ≤ 80%)	–
500 to 1000 nM	–	O=C1CCN(N2C(=O)c3ccc(CN4CCN(c5ncc(C(F)(F)F)cc5Cl)CC4)cc3C2=O)C(=O)N1 [GT-07026, 5-((4-(3-chloro-5-(trifluoromethyl)pyridin-2-yl)piperazin-1-yl)methyl)-2-(2,4-dioxotetrahydropyrimidin-1(2H)-yl)isoindoline-1,3-dione]	–	–	–	–	–	–	B ("B" is defined as 80%< substrate protein remaining %≤ 100%)	B ("B" is defined as 80%< substrate protein remaining %≤ 100%)	B ("B" is defined as 80%< substrate protein remaining %≤ 100%)	A ("A" is defined as 0% ≤ substrate protein remaining % ≤ 80%)	A ("A" is defined as 0% ≤ substrate protein remaining % ≤ 80%)	B ("B" is defined as 80%< substrate protein remaining %≤ 100%)	–
500 to 1000 nM	100 to 300 nM	O=C1CCN(N2Cc3cc(CN4CCC(c5cccc(Cl)c5Cl)CC4)ccc3C2=O)C(=O)N1 [GT-06893, 1-(5-((4-(2,3-dichlorophenyl)piperidin-1-yl)methyl)-1-oxoisoindolin-2-yl)dihydropyrimidine-2,4(1H,3H)-dione]	–	–	–	–	–	–	B ("B" is defined as 80%< substrate protein remaining %≤ 100%)	A ("A" is defined as 0% ≤ substrate protein remaining % ≤ 80%)	A ("A" is defined as 0% ≤ substrate protein remaining % ≤ 80%)	B ("B" is defined as 80%< substrate protein remaining %≤ 100%)	A ("A" is defined as 0% ≤ substrate protein remaining % ≤ 80%)	B ("B" is defined as 80%< substrate protein remaining %≤ 100%)	–
